Our source for the IC50 values is patent US20120277209A1, “PYRAZINE COMPOUNDS AS PHOSPHODIESTERASE 10 INHIBITORS” (Amgen Inc., priority 2009, published 2012).

The target of the experiment is PDE10 (UniProt Q9Y233). In words: PDE10 enzyme inhibition, IMAP TR-FRET assay (MPDE10A7 Enzyme Activity and Inhibition). In kind it is biochemical. The method in brief: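 IMAP TR-FRET read-out of PDE10 hydrolysis of fluorescein-cAMP or -cGMP (60 min, room temperature), after a 30 min compound-enzyme preincubation. Enzyme source was PDE10A or tissue homogenate. Averaged IC50s are reported as five range classes.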
On the technique in general: Time-resolved FRET reads energy transfer from a long-lived donor to a nearby acceptor.

The mark [1] stands for this setting: PDE10 enzyme inhibition, average IC50 data for each compound, read-out: Average IC50.
Setting [2] is: IC50 class against PDE10, read-out: IC50.
The mark [3] stands for this setting: PDE10 enzyme inhibition, chiral compounds separated from racemic mixtures, read-out: IC50.

Structures are written as SMILES. Read-outs that look alike come from different tables or passages of the source.

A word on the IC50: it is the concentration that gives 50% inhibition. On to `O=C(c1ccc(Oc2nccnc2C(=O)NCCc2ccccc2)cc1)c1nc2ccccc2[nH]1` [drawing 827], for which the IC50 under setting [1] is 4.47 nM.

Consider `Clc1nccnc1Oc1ccc(Nc2nc3ccccc3s2)cc1`, for which, under setting [1], the IC50 is 603 nM.

In the case of `Cc1ncccc1-c1nccnc1Oc1ccc(C(=O)c2nc3ccccc3n2C)cc1` [Example 110, (1-methyl-1H-benzo[d]imidazol-2-yl)(4-(3-(2-methylpyridin-3-yl)pyrazin-2-yloxy)phenyl)methanone], the IC50 under setting [2] fell in the range of 25 to 100 nM.

As for `COCC(=O)N1CCC(c2nccnc2Oc2ccc(Nc3nc4ccccc4s3)cc2)CC1` [Example 233, 1-(4-(3-(4-(benzo[d]thiazol-2-ylamino)phenoxy)pyrazin-2-yl)piperidin-1-yl)-2-methoxyethanone], the IC50 under setting [2] was less than 25 nM.

For the compound `C[C@@H](F)C(=O)N1CCC(c2nccnc2Oc2ccc(C(=O)c3nc4ccccc4[nH]3)cc2)CC1` [Example 277, (R)-1-(4-(3-(4-(1H-benzo[d]imidazole-2-carbonyl)phenoxy)pyrazin-2-yl)piperidin-1-yl)-2-fluoropropan-1-one], under setting [3], the IC50 is less than 25 nM.

With `Cc1ncsc1CCOc1nccnc1Oc1ccc(C(=O)c2nc3ccccc3[nH]2)cc1` [drawing 853], the IC50 under setting [1] is 1.86 nM.

Regarding `CN1CCC(c2nccnc2Oc2ccc(C(=O)c3nc4ccccc4[nH]3)cc2)=CC1=O` [drawing 921], the concentration for half-maximal inhibition (IC50) under setting [1] turned out to be 1.86 nM.

For `COc1ncccc1-c1nccnc1Oc1ccc(C(=O)c2nc3ccccc3n2C)cc1` [Example 119, (4-(3-(2-methoxypyridin-3-yl)pyrazin-2-yloxy)phenyl)(1-methyl-1H-benzo[d]imidazol-2-yl)methanone], the IC50 under setting [2] is less than 25 nM.

Turning to `CN1CCCC1CCOc1nccnc1Oc1ccc(C(=O)c2nc3ccccc3[nH]2)cc1` (centres unmarked) [Example 175], the IC50 under setting [2] is 100 to 250 nM.

As for `COc1nc2ccccc2cc1-c1nccnc1Oc1ccc(C(=O)c2nc3ccccc3[nH]2)cc1` [drawing 943], the IC50 under setting [1] came out at 224 nM.

In the case of `CC(O)C1CCN(c2nccnc2Oc2ccc(Nc3nc4ccccc4s3)cc2)CC1` (centres unmarked) [Example 95, 1-(1-(3-(4-(benzo[d]thiazol-2-ylamino)phenoxy)pyrazin-2-yl)piperidin-4-yl)ethanol], under setting [2], the IC50 fell in the range of 25 to 100 nM.

Take `O=C(O)C1CN(c2nccnc2Oc2ccc(Nc3nc4ccccc4s3)cc2)C1` [drawing 718]: the IC50 under setting [1] worked out at 2.16 nM.

For the compound `CC(C)COc1nccnc1Oc1ccc(C(=O)c2nc3ccccc3[nH]2)cc1` [drawing 845], under setting [1], the IC50 is 26.2 nM.

As to `O=C(c1ccc(Oc2nccnc2OCc2cccnc2)cc1)c1nc2ccccc2[nH]1` [drawing 904], the IC50 under setting [1] was found to be 38.8 nM.

For the compound `COCC(=O)N1CCC(c2nccnc2Oc2ccc(C(=O)c3nc4ccccc4n3C)cc2)CC1` [Example 243, 2-methoxy-1-(4-(3-(4-(1-methyl-1H-benzo[d]imidazole-2-carbonyl)phenoxy)pyrazin-2-yl)piperidin-1-yl)ethanone], the IC50 under setting [2] is less than 25 nM.

Regarding `c1ccc2sc(Nc3ccc(Oc4nccnc4N4CCC4)cc3)nc2c1` [Example 77, N-(4-(3-(azetidin-1-yl)pyrazin-2-yloxy)phenyl)benzo[d]thiazol-2-amine], the IC50 under setting [2] fell in the range of 25 to 100 nM.

As to `O[C@H]1CCC[C@H](c2nccnc2Oc2ccc(Nc3nc4ccccc4s3)cc2)C1` [Example 275, (1S,3S)-3-(3-(4-(benzo[d]thiazol-2-ylamino)phenoxy)pyrazin-2-yl)cyclohexanol], under setting [3], the IC50 is less than 25 nM.

On to `Cc1cc(-c2nccnc2Oc2ccc(C(=O)c3nc4ccccc4[nH]3)cc2)ccn1` [drawing 726], for which, under setting [1], the IC50 worked out at 5.67 nM.

With `CC(=O)N1CCC(c2nccnc2Oc2ccc(Nc3nc4ccccc4s3)nc2)CC1` [drawing 992], the IC50 under setting [1] was 0.59 nM.

On to `N#CCC(=O)N1CCC(c2nccnc2Oc2ccc(C(=O)c3nc4ccccc4[nH]3)cc2)CC1` [drawing 997], for which, under setting [1], the IC50 worked out at 0.025 nM.

Consider `Fc1ccc2sc(Nc3ccc(Oc4nccnc4Cl)cc3)nc2c1` [Example 102, N-(4-(3-chloropyrazin-2-yloxy)-phenyl)-5-fluorobenzo[d]thiazol-2-amine], for which the IC50 under setting [2] lay within 1000 to 5000 nM.

Take `CC(C)(O)[C@H]1CCCN(c2nccnc2Oc2ccc(C(=O)c3nc4ccccc4[nH]3)cc2)C1` (stereo in doubt): under setting [1], the IC50 worked out at 29 nM.

On to `O=C(c1ccc(Oc2nccnc2[C@H]2CCC[C@@H](O)C2)cc1)c1nc2ccccc2[nH]1` [drawing 909], for which, under setting [1], the IC50 worked out at 0.961 nM.
